Data reported in ChEMBL document CHEMBL1201862, “PubChem BioAssay data set” (2004).
Active and inactive are the calls of the source.

How the values were obtained:
[1] = inhibitors of HIV Env-driven cell fusion, dose response, cherry-pick (AID 652057); type: functional, cell-based
[2] = biological target: T1, Eukaryotic translation initiation factor 2-alpha kinase 3 (Homo sapiens, UniProt Q9NZJ5); assay: Dose response cell-based high-throughput screening assay to measure PERK inhibition. [Related pubchem assays: 1416 ]; type: functional
T1 sequence (Q9NZJ5 whole entry): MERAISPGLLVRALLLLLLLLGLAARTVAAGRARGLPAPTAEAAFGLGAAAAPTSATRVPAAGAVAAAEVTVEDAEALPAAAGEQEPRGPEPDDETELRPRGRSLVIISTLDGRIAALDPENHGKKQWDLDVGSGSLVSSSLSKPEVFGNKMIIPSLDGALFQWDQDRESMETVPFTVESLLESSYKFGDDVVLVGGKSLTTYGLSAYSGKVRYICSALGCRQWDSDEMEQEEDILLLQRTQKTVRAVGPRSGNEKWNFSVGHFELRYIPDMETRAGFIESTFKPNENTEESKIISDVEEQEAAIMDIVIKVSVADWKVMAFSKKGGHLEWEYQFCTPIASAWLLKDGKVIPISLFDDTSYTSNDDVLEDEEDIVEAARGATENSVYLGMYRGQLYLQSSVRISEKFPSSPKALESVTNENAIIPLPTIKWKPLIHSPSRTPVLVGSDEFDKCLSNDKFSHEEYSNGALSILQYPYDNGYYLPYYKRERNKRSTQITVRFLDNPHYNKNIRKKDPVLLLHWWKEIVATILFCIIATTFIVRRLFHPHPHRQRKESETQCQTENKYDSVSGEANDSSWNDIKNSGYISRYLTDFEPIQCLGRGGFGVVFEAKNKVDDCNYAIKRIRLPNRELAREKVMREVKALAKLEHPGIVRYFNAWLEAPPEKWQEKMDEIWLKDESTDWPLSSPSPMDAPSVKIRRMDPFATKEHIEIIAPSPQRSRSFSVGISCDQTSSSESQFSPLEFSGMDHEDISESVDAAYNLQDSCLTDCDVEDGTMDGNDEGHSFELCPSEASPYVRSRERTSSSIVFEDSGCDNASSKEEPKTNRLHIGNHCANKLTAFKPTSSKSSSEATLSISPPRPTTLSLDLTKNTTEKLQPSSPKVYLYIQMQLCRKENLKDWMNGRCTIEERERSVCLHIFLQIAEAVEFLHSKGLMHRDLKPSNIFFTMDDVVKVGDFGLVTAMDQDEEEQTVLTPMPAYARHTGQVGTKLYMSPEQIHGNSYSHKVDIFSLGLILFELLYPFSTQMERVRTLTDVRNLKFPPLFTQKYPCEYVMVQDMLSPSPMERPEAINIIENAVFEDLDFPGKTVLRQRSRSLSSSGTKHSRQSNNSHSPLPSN

[3] = biological target: T1, Eukaryotic translation initiation factor 2-alpha kinase 3; assay: Counterscreen assay for PERK inhibitors: Dose response cell-based high throughput screening assay to measure inhibition of PERK at 6 hours. [Related pubchem assays: 1522, 1416 ]; type: functional
[4] = NIH-3T3 fibroblast cytotoxicity, dose response, cytotoxicity control, cell-based, fluorescence, Alamar Blue, secondary assay (AID 2327); type: functional;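 further: NIH-3T3 mouse fibroblasts cultured with fluconazole at 8 µg/mL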
[5] = system: Streptococcus sp. 'group A'; assay: growth inhibition of control SK(-) GAS strain, dose response, counter-screen for streptokinase expression inhibitor project, luminescence, kanamycin, BacTiterGlo, confirmation (AID 1900); type: functional, organism-based
Streptokinase A = biological target: T2, Streptokinase A (Streptococcus pyogenes serotype M1, UniProt P10520); assay: S. pyogenes streptokinase expression inhibitors, potency, dose response, plasminogen activation absorbance, OD405 (AID 1914); type: functional, Streptococcus pyogenes M1 GAS;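 further: secreted streptokinase activity via plasminogen activation per viability signal from cell pellet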
T2 sequence (P10520 whole entry): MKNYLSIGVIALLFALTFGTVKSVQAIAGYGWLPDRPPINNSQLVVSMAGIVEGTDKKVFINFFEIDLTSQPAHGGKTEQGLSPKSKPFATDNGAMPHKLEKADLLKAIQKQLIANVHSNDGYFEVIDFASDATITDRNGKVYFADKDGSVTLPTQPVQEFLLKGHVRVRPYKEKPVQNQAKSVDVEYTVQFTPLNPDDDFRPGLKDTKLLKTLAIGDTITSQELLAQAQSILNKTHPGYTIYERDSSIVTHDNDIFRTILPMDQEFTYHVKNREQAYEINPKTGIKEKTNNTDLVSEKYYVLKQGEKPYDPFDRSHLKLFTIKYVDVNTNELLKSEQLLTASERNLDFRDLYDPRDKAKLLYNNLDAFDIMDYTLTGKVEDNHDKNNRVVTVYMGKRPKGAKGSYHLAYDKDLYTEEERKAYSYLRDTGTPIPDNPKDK

[6] = C. albicans growth with fluconazole, confirmation, fluorescence, retest (AID 2467); type: functional, cell-based
Streptococcus = assay: Group A Streptococcus viability loss, dose response, counter-screen for streptokinase expression inhibitor project, luminescence, BacTiterGlo (AID 1915); type: functional, organism-based;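 further: potency for reduction of bacterial viability or growth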
Caspase-3 = biological target: T3, Caspase-3 (Homo sapiens, UniProt P42574); type: functional;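 further: Dose-response selectivity test against caspase-3 for candidate inhibitors of sentrin-specific proteases (SENPs)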
T3 sequence (P42574 whole entry): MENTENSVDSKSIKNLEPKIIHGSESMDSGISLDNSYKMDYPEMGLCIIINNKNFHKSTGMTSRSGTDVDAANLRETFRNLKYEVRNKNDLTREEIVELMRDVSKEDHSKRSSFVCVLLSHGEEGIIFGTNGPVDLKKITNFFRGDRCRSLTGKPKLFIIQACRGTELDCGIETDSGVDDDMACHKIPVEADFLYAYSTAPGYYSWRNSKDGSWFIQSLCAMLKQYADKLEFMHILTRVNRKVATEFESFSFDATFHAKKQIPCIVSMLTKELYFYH

[7] = biological target: T4, Sentrin-specific protease 7 (Homo sapiens, UniProt Q9BQF6); type: functional;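 further: Luminescence-based dose-response confirmation of ultra-high-throughput screening hits, measuring inhibition of SENP7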
T4 sequence (Q9BQF6 whole entry): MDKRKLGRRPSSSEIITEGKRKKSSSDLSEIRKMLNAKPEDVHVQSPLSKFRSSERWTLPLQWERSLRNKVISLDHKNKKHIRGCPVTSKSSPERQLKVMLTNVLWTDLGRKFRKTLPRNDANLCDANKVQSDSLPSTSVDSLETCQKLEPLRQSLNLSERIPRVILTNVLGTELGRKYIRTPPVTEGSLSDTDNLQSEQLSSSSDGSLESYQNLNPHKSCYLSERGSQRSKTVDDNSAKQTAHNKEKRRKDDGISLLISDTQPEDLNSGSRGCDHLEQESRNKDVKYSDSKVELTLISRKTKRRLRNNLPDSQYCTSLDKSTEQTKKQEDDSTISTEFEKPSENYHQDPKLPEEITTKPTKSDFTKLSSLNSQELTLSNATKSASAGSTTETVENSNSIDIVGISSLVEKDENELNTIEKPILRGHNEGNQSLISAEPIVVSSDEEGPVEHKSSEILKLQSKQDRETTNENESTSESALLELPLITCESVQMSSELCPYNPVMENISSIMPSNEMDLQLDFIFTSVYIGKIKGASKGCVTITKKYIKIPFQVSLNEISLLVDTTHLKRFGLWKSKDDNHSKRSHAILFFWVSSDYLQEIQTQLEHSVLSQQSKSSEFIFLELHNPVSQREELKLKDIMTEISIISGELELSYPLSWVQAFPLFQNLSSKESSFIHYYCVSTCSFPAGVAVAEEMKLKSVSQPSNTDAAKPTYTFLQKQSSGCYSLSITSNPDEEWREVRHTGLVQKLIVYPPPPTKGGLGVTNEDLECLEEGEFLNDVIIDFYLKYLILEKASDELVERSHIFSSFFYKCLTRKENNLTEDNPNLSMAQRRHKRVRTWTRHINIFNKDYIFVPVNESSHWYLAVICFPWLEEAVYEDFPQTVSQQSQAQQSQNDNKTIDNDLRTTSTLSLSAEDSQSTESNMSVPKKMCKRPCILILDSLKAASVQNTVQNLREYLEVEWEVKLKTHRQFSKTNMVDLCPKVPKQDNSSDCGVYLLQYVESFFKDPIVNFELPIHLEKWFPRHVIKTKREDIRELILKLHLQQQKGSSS

[8] = biological target: T5, Sentrin-specific protease 6 (Homo sapiens, UniProt Q9GZR1); type: functional;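 further: Luminescence-based dose-response confirmatory assay of SENP6 inhibition, following up an ultra-high-throughput screen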
T5 sequence (Q9GZR1 whole entry): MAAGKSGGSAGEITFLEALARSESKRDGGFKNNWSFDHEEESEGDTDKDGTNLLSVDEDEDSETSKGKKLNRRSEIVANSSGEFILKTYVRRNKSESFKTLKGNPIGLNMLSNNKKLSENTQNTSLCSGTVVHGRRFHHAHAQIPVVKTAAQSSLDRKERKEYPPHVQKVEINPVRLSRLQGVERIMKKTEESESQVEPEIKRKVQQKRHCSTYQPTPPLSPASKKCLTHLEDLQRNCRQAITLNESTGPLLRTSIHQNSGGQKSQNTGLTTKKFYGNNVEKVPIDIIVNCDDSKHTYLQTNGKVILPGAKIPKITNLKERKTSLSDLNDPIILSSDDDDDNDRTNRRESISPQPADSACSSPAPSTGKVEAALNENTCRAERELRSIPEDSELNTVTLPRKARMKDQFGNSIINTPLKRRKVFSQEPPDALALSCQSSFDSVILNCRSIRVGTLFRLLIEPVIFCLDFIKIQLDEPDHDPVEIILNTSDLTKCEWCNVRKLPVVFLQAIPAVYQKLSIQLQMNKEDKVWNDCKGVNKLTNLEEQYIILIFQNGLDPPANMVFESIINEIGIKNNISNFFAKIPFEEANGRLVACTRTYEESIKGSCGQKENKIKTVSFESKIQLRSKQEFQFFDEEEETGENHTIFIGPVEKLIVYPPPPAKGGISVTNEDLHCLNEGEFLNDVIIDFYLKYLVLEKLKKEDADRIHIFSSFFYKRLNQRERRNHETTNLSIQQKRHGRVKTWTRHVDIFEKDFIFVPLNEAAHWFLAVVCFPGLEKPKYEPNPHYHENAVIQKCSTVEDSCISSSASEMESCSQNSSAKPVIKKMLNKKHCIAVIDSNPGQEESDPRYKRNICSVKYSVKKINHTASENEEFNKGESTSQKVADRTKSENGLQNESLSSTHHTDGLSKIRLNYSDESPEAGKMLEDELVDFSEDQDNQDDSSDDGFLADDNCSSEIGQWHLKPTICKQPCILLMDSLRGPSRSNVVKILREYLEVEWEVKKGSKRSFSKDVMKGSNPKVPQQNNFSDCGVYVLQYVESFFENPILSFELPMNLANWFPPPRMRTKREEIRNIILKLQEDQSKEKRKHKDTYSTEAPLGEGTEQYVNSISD

[9] = biological target: T6, Sentrin-specific protease 8 (Homo sapiens, UniProt Q96LD8); type: functional;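 further: luminescence read-out of SENP8 inhibition, dose-response confirmation following an ultra-high-throughput screen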
T6 sequence (Q96LD8 whole entry): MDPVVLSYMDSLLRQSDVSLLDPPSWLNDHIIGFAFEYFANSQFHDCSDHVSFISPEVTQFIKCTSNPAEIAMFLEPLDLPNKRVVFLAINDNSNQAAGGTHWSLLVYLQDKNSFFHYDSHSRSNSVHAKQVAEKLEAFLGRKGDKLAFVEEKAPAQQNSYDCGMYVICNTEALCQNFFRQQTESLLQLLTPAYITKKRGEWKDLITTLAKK

Nonstructural protein 1 = Nonstructural protein 1 (Influenza A virus, UniProt Q194T2); type: functional, Influenza A virus (A/California/07/2009(H1N1))
Nonstructural protein 1, sequence (Q194T2 whole entry): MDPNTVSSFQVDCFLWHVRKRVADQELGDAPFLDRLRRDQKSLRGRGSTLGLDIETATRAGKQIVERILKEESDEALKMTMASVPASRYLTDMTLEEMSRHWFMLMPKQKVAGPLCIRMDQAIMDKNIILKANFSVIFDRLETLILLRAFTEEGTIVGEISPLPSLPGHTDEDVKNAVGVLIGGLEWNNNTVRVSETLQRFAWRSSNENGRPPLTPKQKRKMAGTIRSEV

In the case of C[C@@H]1CN([C@H](C)CO)C(=O)c2cccc(NS(=O)(=O)c3ccc(F)cc3)c2O[C@@H]1CN(C)Cc1ccc(C(F)(F)F)cc1, the AC50 [1] is reported as < 0.26 µM (active).
For O=C(CN1C(=O)COc2ccc(S(=O)(=O)N3CCOCC3)cc21)NCc1ccccn1, the EC50 [2] was > 55.7 µM (not active) and the EC50 [3] was > 55.7 µM (not active).
With Oc1nc(Nc2ccccc2)sc1/C=C1\C=Nc2ccccc21 the EC50 [4] was 17.9 µM (active), the EC50 [5] was 17.3 µM (active) and the EC50 (Streptokinase A) was > 150 µM (not active). For the same compound, the EC50 [6] was 1.73 µM (active), the EC50 (Streptococcus) was 26.6 µM (active) and the IC50 (Caspase-3) was 70.5 µM (active). The IC50 [7] was 6.51 µM (active), the IC50 [8] was > 100 µM (inactive) and the IC50 [9] was > 100 µM (inactive).
With Cc1ccc(-c2cc(-c3cccc(F)c3)[nH]n2)c(O)c1 the EC50 [5] was 7.23 µM (active), the EC50 (Streptokinase A) was 21.3 µM (active) and the EC50 (Streptococcus) was > 150 µM (not active). The IC50 (Caspase-3) was 47.2 µM (active), the IC50 [7] was 6.27 µM (active) and the IC50 [8] was 12.2 µM (active). The IC50 [9] was 23.8 µM (active).
With Cc1nnc(O)nc1NCCN(C)C the EC50 [2] was > 55.7 µM (not active) and the EC50 [3] was > 55.7 µM (not active).
With Cn1cc([N+](=O)[O-])c(C(=O)NCc2ccco2)n1 the EC50 [2] was > 55.7 µM (not active) and the EC50 [3] was > 55.7 µM (not active).
For CCOc1cc(C2NC(S)=NC(C)=C2C(=O)Nc2ccc(OC)cc2)ccc1O (stereo not given), the EC50 [2] was > 55.7 µM (not active) and the EC50 [3] was > 55.7 µM (not active).
In the case of Cc1cc(C(=O)N=Nc2c(O)n(C)c3ccccc23)c(C)o1, the IC50 (Caspase-3) is reported as 2.71 µM (active), the IC50 [7] is reported as 4.99 µM (active) and the IC50 [8] is reported as 4.84 µM (active). The IC50 [9] was > 100 µM (inactive).
For Cc1ccc(COc2ccc(/C=N/O)cc2)cc1, the IC50 (Caspase-3) was 17.2 µM (active), the IC50 [7] was 5.63 µM (active) and the IC50 [8] was 14.6 µM (active). The IC50 [9] was 23.5 µM (active).
For O=[N+]([O-])c1ccc(C2NS(=O)(=O)N=C3CCCCCN32)cc1 (stereo not given), the EC50 [2] was > 55.7 µM (not active) and the EC50 [3] was > 55.7 µM (not active).
With CN(C)c1ccc(N=Nc2cccc3ccoc23)cc1 the IC50 (Caspase-3) was 14.8 µM (active), the IC50 [7] was 3.81 µM (active) and the IC50 (Nonstructural protein 1) was 39.3 µM (active). For the same compound, the IC50 [8] was 8.07 µM (active) and the IC50 [9] was 8.97 µM (active).
